# Experimental data published in paper PMC8421526, “Cell-Penetrating Peptides Predicted From CASC3, AKIP1, and AHRR Proteins” (Frontiers in Pharmacology, 2021).
# “Also recorded” adds a separate entry of the source. Read-outs that look alike come from different tables or passages of the source.
# Key:
# U87, PC3, and HeLa cells [1] = test: Percentage of fluorescent cells after peptide treatment, flow cytometry; type: cell-based, human; details: FAM-labelled peptide 10 µM, 2 h, serum free media, trypan blue quenching, Figure 1B; for Percentage of the fluorescent positive cells: threshold set with untreated cells
# Procedure: U87 (human glioblastoma like cells) and HeLa (human cervical cancer) were maintained at 37°C and 5% CO2 in Dulbecco’s Modified Eagle’s Medium (DMEM) (Sigma, Germany). PC3 (human prostate cancer) and CHO cells were maintained in Ham´S F12 media and incubated at 37°C and 5% CO2. Cell media were supplemented with 0.1 mM non-essential amino acids, 1.0 mM sodium pyruvate, 10% fetal bovine serum (FBS) (Sigma, Germany), 100°U ml^−1 penicillin, and […] streptomycin (Invitrogen, Sweden). U87 cell dishes were treated with 0.1% gelatin solution prior to addition of cells and media. The percentage of the fluorescent cells after peptide treatment was assessed using flow cytometry. For flow cytometry, 10,000 cells were seeded on a 96-well plate 1 day prior to the experiment. On the experiment day, the cell media was changed to 90 µl of fresh serum free media followed by the addition of 10 µl of the fluorescently labelled peptide solution. The peptide’s final concentration on the cells was 10 µM. The cells were incubated with the peptides for 2 h, following washes with PBS buffer. 0.25% Trypsin-EDTA was added to detach the cells from the plate and 200 µl of PBS mixed with 1% FBS was added. Shortly before the analysis, 50 µl of 0.4% trypan blue was added to quench the fluorescence outside the cells. The fluorescence detected from the untreated cells was used to set the signal threshold. The results are shown as the percentage of the fluorescent positive cells.
# HeLa cells = test: Internalization of fluorescently labelled peptide, confocal microscopy of live cells; type: cell-based, human; details: 4 h; for Fluorescence signal from the peptide in confocal images: fluorescently labelled peptide 10 µM, Hoechst counterstain, 20x; for Entry into cells in confocal images: fluorescently labelled peptide 20 µM, Supplementary Figure S2
# Procedure: 48 h prior to the addition of […], 20,000 HeLa cells were seeded on 8-well Nunc™ Lab-Tek™ (Thermo Scientific™, United States) chamber plates. Before the addition of the peptide solutions media was changed to 225 µl of fresh media. […] After 4 h incubation, the cells were washed with PBS and counterstained with Hoechst 33342. Confocal images were acquired from live cells with Zeiss LSM710 (Carl Zeiss AG, Germany). For detecting the fluorescent label from the peptide, 488 nm laser with […] was used, and for detecting nuclei 405 nm laser with 416–503 filter was used. The images were taken with 20x magnification.
# U87, PC3, and HeLa cells [2] = test: Internalization of FAM-labelled peptides, fluorescence from cell lysate; type: cell-based, human; details: FAM-labelled peptide 10 µM, 2 h, serum free media, lysis 0.1% Triton X100; cannot distinguish internalized from membrane-attached peptide; Figure 1A
# Procedure: U87 (human glioblastoma like cells) and HeLa (human cervical cancer) were maintained at 37°C and 5% CO2 in Dulbecco’s Modified Eagle’s Medium (DMEM) (Sigma, Germany). PC3 (human prostate cancer) and CHO cells were maintained in Ham´S F12 media and incubated at 37°C and 5% CO2. Cell media were supplemented with 0.1 mM non-essential amino acids, 1.0 mM sodium pyruvate, 10% fetal bovine serum (FBS) (Sigma, Germany), 100°U ml^−1 penicillin, and […] streptomycin (Invitrogen, Sweden). U87 cell dishes were treated with 0.1% gelatin solution prior to addition of cells and media. For assessing the internalization of the peptides from the cell lysate, 50,000 cells were seeded on a 24-well plate 1 day prior to the experiment. On the experiment day, cell media was changed to 450 µl of fresh serum free media followed by the addition of 50 µl of fluorescently labelled peptide solution. The peptide’s final concentration on the cells was 10 µM. The cells were incubated with the peptides for 2 h, following washes with PBS buffer and cell lysis with 100 µl of 0.1% Triton X100. The cell lysate was transferred to black 96-well plate and the fluorescence signal from the fluorescently labelled peptide was measured.
# U87 cells [3] = test: Total DNA from cell lysate (PicoGreen dsDNA assay); type: cell-based, human; details: 5 µM peptide, 48 h, normalized to untreated cells, average of three wells
# Procedure: Total DNA was measured from U87 cells 48 h after the addition of the peptide solutions. After the incubation, the cells were washed with PBS and lysed as described above. From the cell lysate, DNA was quantified with Quant-iT™ PicoGreen™ dsDNA Assay Kit. The results are shown as the average of measurements from three wells and normalized to untreated cells.
# U87 cells [4] = details: for 2-Way ANOVA, MTS assay, treatment group compared to untreated: Table S4 C; for Proliferation in MTS assay compared to the CPP Tat treated group: same concentration of Tat, statistically significant
# Procedure: (§1) The cell proliferation was analyzed with the CellTiter 96® Aqueous Non-Radioactive Cell Proliferation Assay (MTS) (Promega Biotech AB, Sweden) according to the manufacturer’s instructions. For this, 10,000 U87 or CHO cells were seeded 1 day prior to the experiment on transparent 96-well plates. On the experiment day, media was replaced with 90 μl of fresh serum free media. Peptides in the concentration range from 0 to 32 µM were added to the cells. The cells were incubated with the peptides for 20 h or 46 h, following the addition of the reagent and further incubation to reach 24 h or 48 h timepoints. The absorbance of the formazan product was measured at 490 nm with Tecan Sunrise microplate absorbance reader (Tecan Group Ltd., Switzerland) and the percentage of viable cells was calculated using the GraphPad Prism software 5.0 (GraphPad Software, CA, United States).
# CHO cells = details: serum free media, 8 and 32 µM, average of three independent wells
# Procedure: as §1
# [5] = Figure 3 24 h, peptide added 0.5 µM
# [6] = Figure 3 24 h, peptide added 2 µM
# [7] = Figure 3 24 h, peptide added 8 µM
# [8] = Figure 3 24 h, peptide added 32 µM
# [9] = Figure 3 48 h, peptide added 0.5 µM
# [10] = Figure 3 48 h, peptide added 2 µM
# [11] = Figure 3 48 h, peptide added 8 µM
# [12] = Figure 3 48 h, peptide added 32 µM
Sequence,"Fluorescent signal in flow cytometry (detectable or not) (U87, PC3, and HeLa cells [1])",Fluorescence signal from the peptide in confocal images (HeLa cells),"Fluorescence signal from the cell lysate (internalization) (U87, PC3, and HeLa cells [2])","Percentage of the fluorescent positive cells (U87, PC3, and HeLa cells [1])","2-Way ANOVA, MTS assay, treatment group compared to untreated (U87 cells [4]; [5])","2-Way ANOVA, MTS assay, treatment group compared to untreated (U87 cells [4]; [6])","2-Way ANOVA, MTS assay, treatment group compared to untreated (U87 cells [4]; [7])","2-Way ANOVA, MTS assay, treatment group compared to untreated (U87 cells [4]; [8])","2-Way ANOVA, MTS assay, treatment group compared to untreated (U87 cells [4]; [9])","2-Way ANOVA, MTS assay, treatment group compared to untreated (U87 cells [4]; [10])","2-Way ANOVA, MTS assay, treatment group compared to untreated (U87 cells [4]; [11])","2-Way ANOVA, MTS assay, treatment group compared to untreated (U87 cells [4]; [12])",other results
TQKEKKAARARSK [ING4_134-145],"all the peptides except the CCNL2, ING4, and FBXO32 derived peptides had a detectable signal",,,,,,,,,,,,
VLERAKRRAV [AKIP1_27-37],,fluorescence signal from the peptides can be seen in the cells,highest fluorescence intensities,more than 10%,ns (P > 0.05 – ns),* (p < 0.05 - *),* (p < 0.05 - *),* (p < 0.05 - *),ns (P > 0.05 – ns),* (p < 0.05 - *),* (p < 0.05 - *),** (p < 0.01 - **),Amount of total DNA (U87 cells [3]): decreased amount of total DNA
PDDIKPRRIRKPRY [CASC3_251-264],,fluorescence signal from the peptides can be seen in the cells; also recorded: strongest and well dispersed signal,highest fluorescence intensities,more than 10%,** (p < 0.01 - **),** (p < 0.01 - **),*** (p < 0.001 - ***),*** (p < 0.001 - ***),* (p < 0.05 - *),* (p < 0.05 - *),* (p < 0.05 - *),*** (p < 0.001 - ***),"Entry into cells in confocal images (HeLa cells): able to enter into almost all the cells; Cell proliferation in MTS assay (CHO cells): proliferation decreased; Proliferation in MTS assay compared to the CPP Tat treated group (U87 cells [4]; U87 cells, 0.5 µM, 24 h): decrease in the proliferation; Cell proliferation in MTS assay (U87 cells [4]; U87 cells, serum free media, 8 and 32 µM): proliferation decreased"
"GRKKRRQRRRPPQ [Tat48-60, reference compound]",,fluorescence signal from the peptides can be seen in the cells,,,ns (P > 0.05 – ns),ns (P > 0.05 – ns),ns (P > 0.05 – ns),* (p < 0.05 - *),ns (P > 0.05 – ns),ns (P > 0.05 – ns),* (p < 0.05 - *),*** (p < 0.001 - ***),"Entry into cells in confocal images (HeLa cells): able to enter into almost all the cells; Toxicity in MTS assay (U87 cells [4]; U87 cells, serum free media, 0-32 µM, after 24 or 48 h): did not show a considerable amount of toxicity"
"NTKRRLEGAKKA [CCNL2_354-365, predicted CPP from Cyclin L2, C-terminally amidated]","all the peptides except the CCNL2, ING4, and FBXO32 derived peptides had a detectable signal",,,,,,,,,,,,
"VAAKKRKKDML [FBXO32_59-69, predicted CPP from F-box only protein 32, C-terminally amidated]","all the peptides except the CCNL2, ING4, and FBXO32 derived peptides had a detectable signal",,,,,,,,,,,,
"RKRRESASSSSSVKKAKKP [DMAP1_459-467, predicted CPP from DNA methyltransferase 1-associated protein 1, C-terminally amidated]",,,above control,,,,,,,,,,
GECTYAGRKRRRPLQK [AHRR8-24],,fluorescence signal from the peptides can be seen in the cells,highest fluorescence intensities,more than 10%,ns (P > 0.05 – ns),* (p < 0.05 - *),* (p < 0.05 - *),** (p < 0.01 - **),,,,,"Proliferation in MTS assay compared to the CPP Tat treated group (U87 cells [4]; U87 cells, 0.5, 2, and 8 µM, 48 h): decrease in the proliferation; Viability in MTS assay (U87 cells [4]; U87 cells, serum free media, after 48 h): decreased viability"
